For one series, the system named is PC12 cells. The experiment in a line: CellTox assay, survival of PC12 cells under serum deprivation. The series is classed as cell-based. The note with it: compound 500 nM, 24 h, after 4 h serum starvation; NGF 100 ng/mL as control (Figure 9). The protocol:
PC12 cells were obtained from LGC Promochem and cultured under specified conditions. Cells were grown in DMEM medium (Thermo Fischer Scientific, cat# 10566016) containing 10% horse serum (Thermo Fischer Scientific, cat# 16050122), 5% fetal bovine serum (Thermo Fischer Scientific, cat# 10270106), 100 units/mL penicillin, and 0.1 mg/mL streptomycin (Thermo Fischer Scientific, cat# 15140122) at 5% CO2 and 37°C. Cells were used between passages 5 and 20.
CellTox assay (G8742, Promega, Leiden, Belgium) was used to assess the survival of PC12 cells under serum deprivation conditions. PC12 cells were plated in 96-well plates, starved from serum for 4 h, and subsequently treated with NGF (100 ng/mL) or compound (500 nM) for 24 h. CellTox assay reagents and Hoescht (1:10,000, H3570, Invitrogen, Massachusetts, USA) were then added to each well for 30 min, and then, cells were imaged with a Zeiss AXIO Vert A1 fluorescent microscope. CellTox positive cells were normalized to the total number of cells for each image.
Initially, we tested compounds ENT-A002, ENT-A007, ENT-A009, ENTA025, ENT-A026, ENT-A033, ENT-A034, ENT-A035, ENT-A036, ENT-A037, ENT-A046, ENT-A047, ENT-A055, and ENT-A056 for their ability to protect PC12 cells from serum deprivation-induced cell death as well as for their ability to activate TrkA downstream pro-survival signaling kinases Akt and Erk1/2 (Figures 9A–C). We opted to employ PC12 cells, which express receptors TrkA and p75 and have been routinely used for investigating NGF-TrkA signaling. PC12 cells were subjected to a period of nutrient deprivation (without fetal bovine serum and horse serum in their culture medium) for 4 h. Following this, NGF (100 ng/mL) or one of the compounds (500 nM or 1 μM) was administered and allowed to interact with the cells for 24 h. Following that, CellTox and Hoescht dyes were added and cells were imaged to assess cell death. Control cases involved cells cultured in full medium (serum), cells under starvation conditions (serum-free), and cells under starvation conditions treated with DMSO (SF+DMSO).

In series [1] the test system is NIH-3T3 TrkB-expressing cell line. The experiment in a line: CellTox Green cytotoxicity assay in NIH-3T3 cells stable transfected with TrkB under serum deprivation. The series is classed as cell-based. The note with it: compound 1 μM, 24 h, after 24 h serum starvation; BDNF 500 ng/mL as control. The protocol: We tested compounds on three cellular systems, primary cortical astrocytes from 2-day-old mice (as a natively TrkB-expressing neuronal population), and NIH-3T3 fibroblasts stable transfected with TrkB and NIH-3T3 naïve cells. Cells were grown with high-glucose DMEM medium supplemented with 10% fetal bovine serum (FBS), 100 μg/mL streptomycin, and 100 units/mL penicillin at 37°C in a humidified 5% CO2 atmosphere. Phosphorylation results presented here are in primary astrocytes, and cell toxicity assay results are in NIH-3T3 stable transfected cells with TrkB.
NIH-3T3 stable transfected cells with TrkB were plated in 96-well plates at a density of 10,000 cells/well, before carrying out serum starvation for 24 h. Cells were then treated for 24 h with either BDNF at 500 ng/mL (control) or the compounds at 1 μM.
For the cell toxicity assay, we used CellTox™ Green Dye (2,000 × , Promega) for the visualization of dead cells and Hoechst 33,342 solution (10,000 × ) for total cells. A ZEISS Axio Vert.A1 microscope was used for image capture, and the ImageJ software (https://imagej.nih.gov/ij/) was used for analysis. The number of CellTox positive cells was normalized against the total number of cells observed in each image.
The NIH-3T3 TrkB cell line, which is stable and transfected to specifically express the TrkB receptor, was used for the screening of the new compounds for their ability to protect cells from serum deprivation-induced apoptosis through the activation of the TrkB receptor. Cell death was induced by serum deprivation for 24 h and then BDNF (500 ng/mL), the native neurotrophin ligand of the TrkB receptor, or compounds ENT-A007, ENT-A009, ENTA025, ENT-A026, ENT-A033, ENT-A034, ENT-A035, ENT-A036, ENT-A037, ENT-A046, ENT-A047, ENT-A055, and ENT-A056 (1 μM) were added to the media for 24 h.

The record followed here is article PMC10568017, “A quest for the stereo-electronic requirements for selective agonism for the neurotrophin receptors TrkA and TrkB in 17-spirocyclic-dehydroepiandrosterone derivatives” (Frontiers in Molecular Neuroscience, 2023).

SMILES strings stand for the structures.

Take `CC12CCC(O)CC1=CCC1C2CCC2(C)C1CCC21CC=C(CC#N)CO1` [ENT-A033, (3S,17R)-3-hydroxy-3′,6′-dihydrospiro[5-androstene-17,2′-pyran]-5′-yl-acetonitrile]: the “protection of PC12 cells from serum deprivation-induced cell death (CellTox)” value (from here on “protection of PC12 cells”) in the series with PC12 cells is reported as “none of these compounds provided any protective effects”. Moreover, the “protection of NIH-3T3-TrkB cells from serum deprivation-induced cell death (CellTox)” value (from here on “protection of NIH-3T3-TrkB cells”) in series [1] is recorded as “none of these compounds provided any protective effects”.

With `COc1ccc(COCC2=CC[C@@]3(CC[C@H]4[C@@H]5CC=C6C[C@@H](O)CC[C@]6(C)[C@H]5CC[C@@]43C)OC2)cc1` [ENT-A035], the “protection of PC12 cells” value in the series with PC12 cells was “none of these compounds provided any protective effects”. Further, the “protection of NIH-3T3-TrkB cells” value in series [1] is reported as “none of these compounds provided any protective effects”.

On to `C[C@]12CC[C@H](O)CC1=CC[C@@H]1[C@@H]2CC[C@@]2(C)[C@H]1CC[C@@]21CC=C(Cn2cc(CC3CCCCC3)nn2)CO1` [ENT-A047, (3S,17R)-5′-[(4-(cyclohexylmethyl)-1H-1,2,3-triazol-1-yl)methyl]-3′,6′-dihydrospiro[5-androstene-17,2′-pyran]-3-ol], for which the melting point (usually the temperature of the solid-liquid transition) is 181 °C (dec.).

Molecule `C[C@]12CC[C@H](O)CC1=CC[C@@H]1[C@@H]2CC[C@@]2(C)[C@H]1CCC21CC(=CC#N)C1` (stereo partly drawn) [ENT-A077] showed a melting point of 161 to 163 °C.

Take `C[C@]12CC[C@H](O)CC1=CC[C@@H]1[C@@H]2CC[C@@]2(C)[C@H]1CC[C@@]21CC=C(Cn2cc(CO)nn2)CO1` [ENT-A037, (3S,17R)-5′-[(4-(hydroxymethyl)-1H-1,2,3-triazol-1-yl)methyl]-3′,6′-dihydrospiro[5-androstene-17,2′-pyran]-3-ol]: the melting point lay within 202 to 204 °C.

Regarding `C[C@]12CC[C@H](O)CC1=CC[C@@H]1[C@@H]2CC[C@@]2(C)[C@H]1CCC21CC(=CC(=O)O)C1` (stereo partly drawn) [ENT-A080], the melting point was 221 °C (dec.).

`COC(=O)CSCC1=CCC2(CCC3C4CC=C5CC(O)CCC5(C)C4CCC32C)OC1` [ENT-A026, Methyl (3S,17R)-3-hydroxy-3’,6’-dihydrospiro[5-androstene-17,2’-pyran]-5’-yl-methylthio acetate]: the “protection of PC12 cells” value with PC12 cells was “none of these compounds provided any protective effects”. For the same molecule, the “protection of NIH-3T3-TrkB cells” value in series [1] was “none of these compounds provided any protective effects”.

In the case of `C[C@]12CC[C@H](O)CC1=CC[C@@H]1[C@@H]2CC[C@@]2(C)[C@H]1CC[C@@]21CC=CCO1` [ENT-A002, (3S,17R)-3′,6′-dihydrospiro[5-androstene-17,2′-pyran]-3-ol], in the series with PC12 cells, the “protection of PC12 cells” value is listed as “did not show any protective effects”. Moreover, the “protection of NIH-3T3-TrkB cells” value in series [1] is recorded as “did not show any protective effects”.

`C[C@]12CC[C@H](O)CC1=CC[C@@H]1[C@@H]2CC[C@@]2(C)[C@H]1CC[C@@]21CC=C(CO)CO1` [ENT-A008]: the “protection of PC12 cells” value with PC12 cells is on record as “none of these compounds provided any protective effects”. Further, the “protection of NIH-3T3-TrkB cells” value in series [1] is listed as “none of these compounds provided any protective effects”.

As to `C[C@]12CC[C@H](O)CC1=CC[C@@H]1[C@@H]2CC[C@@]2(C)[C@H]1CC[C@@]21CC=C(CF)CO1` [ENT-A034], in the series on PC12 cells, the “protection of PC12 cells” value is reported as “none of these compounds provided any protective effects”. The “protection of NIH-3T3-TrkB cells” value in series [1] is on record as “none of these compounds provided any protective effects”.
